Reference: patent US5607960A, “Indole derivatives as 5-HT1-like agonists for use in migraine” (Pfizer Inc., priority 1993, dated 1997)
pEC50: −log10 of the molar value.

Columns and labels:
[1] = target: T1, "5-HT1 -like" receptor (Canis lupus familiaris, UniProt P79250); test: contraction of dog isolated saphenous vein strip (in vitro "5-HT1 -like" receptor agonist activity); assay type: cell-based; conditions: for pEC50: concentration which causes 50% of the maximum contraction effected by the compound; for RELATIVE POTENCY EC50 (compound) / EC50 (5-HT): ratio to 5-HT
T1 construct: dog isolated saphenous vein strip; from tissue; host or cells: dog isolated saphenous vein strip
Text: EC50 represents the concentration of compound which causes 50% of the maximum contraction effected by it.

[2] = acute toxicity in conscious dog, i.v.; assay type: in vivo; conditions: doses of up to 1 mg/Kg i.v.
[3] = acute toxicity in conscious mouse, i.v.; assay type: in vivo; conditions: doses of up to 10 mg/Kg i.v.
[4] = target: T1, "5-HT1 -like" receptor; conditions: cited from earlier work
[5] = tested on: carotid vascular bed; conditions: anaesthetized dog; cited from earlier work

T1 sequence (P79250 whole entry): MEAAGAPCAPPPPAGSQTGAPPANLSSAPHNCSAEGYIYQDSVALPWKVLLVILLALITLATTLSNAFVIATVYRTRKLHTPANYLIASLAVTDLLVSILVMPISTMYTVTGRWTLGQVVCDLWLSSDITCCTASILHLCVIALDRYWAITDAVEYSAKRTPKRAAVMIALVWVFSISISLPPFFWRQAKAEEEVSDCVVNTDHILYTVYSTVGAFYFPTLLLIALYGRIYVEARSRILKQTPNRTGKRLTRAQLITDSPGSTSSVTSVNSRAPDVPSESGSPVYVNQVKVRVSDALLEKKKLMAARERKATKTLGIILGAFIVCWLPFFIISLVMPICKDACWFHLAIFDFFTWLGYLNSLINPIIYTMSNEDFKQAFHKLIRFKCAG

Compound	pEC50 [1]	RELATIVE POTENCY EC50 (compound) / EC50 (5-HT) [1]	further results
CN1CCC[C@@H]1Cc1c[nH]c2ccc(C=CC(C)(C)O)cc12 [Example 1, 5-(3-Hydroxy-3-methyl-1-but-1-enyl)-3-(N-methyl-2(R)-pyrrolidinylmethyl)-1H-indole]	6.40	7.7	
CC(C)(O)CCc1ccc2[nH]cc(C[C@H]3CCCN3CC3CC3)c2c1 [Example 25, 3-(N-Cyclopropylmethyl-2(R)-pyrrolidinylmethyl)-5-(3-hydroxy-3-methyl-1-butyl)-1H-indole]	6.32	6.4	
CC(C)(O)CCc1ccc2[nH]cc(C[C@H]3CCCN3)c2c1 [Example 29, 5-(3-Hydroxy-3-methyl-1-butyl)-3-(2(R)-pyrrolidinylmethyl)-1H-indole]	6.17	9.0	signs of adverse acute toxicity [2]: no signs of adverse acute toxicity; signs of adverse acute toxicity [3]: no signs of adverse acute toxicity
CC(C)(O)CCc1ccc2[nH]cc(C[C@H]3CCCN3CCc3ccncc3)c2c1 [Example 30, 5-(3-Hydroxy-3-methyl-1-butyl)-3-{N-[2-(4-pyridyl)ethyl]-2(R)-pyrrolidinylmethyl}-1H-indole]	6.03	7.2	
CC(=O)CCc1ccc2[nH]cc(C[C@H]3CCCN3)c2c1 [Example 37, 5-(3-Oxo-1-butyl)-3-(2(R)-pyrrolidinylmethyl)-1H-indole]	6.89	1.3	
CC(O)CCc1ccc2[nH]cc(C3CCN(C)CC3)c2c1 (centres unmarked) [Example 43, 5-(3-Hydroxy-1-butyl)-3-(N-methyl-4-piperidyl)-1H-indole]	6.25	8.0	
CC(C)(O)CCc1ccc2[nH]cc(CCN)c2c1 [Example 48, 3-(2-Aminoethyl)-5-(3-hydroxy-3-methyl-1-butyl)-1H-indole]	6.52	3.2	
CC(O)(CCc1ccc2[nH]cc(C[C@H]3CCCN3)c2c1)C(F)(F)F (stereo partly drawn) [Example 95, 5-(3-Hydroxy-3-trifluoromethyl-1-butyl)-3-(2(R)-pyrrolidinylmethyl)-1H-indole]	6.49	4.0	
CN(C)C(=O)CCN1CCC[C@@H]1Cc1c[nH]c2ccc(CCC3(O)CCOC3)cc12 (stereo partly drawn) [Example 101, 5-[2-(3-Hydroxy-3-tetrahydrofuranyl)ethyl]-3-{N-[2-(N,N-dimethylcarbamoyl)ethyl]-2(R)-pyrrolidinylmethyl}-1H-indole]	6.15	10.0	
OC1(CCc2ccc3[nH]cc(C4CCNC4)c3c2)CCCC1 (centres unmarked) [Example 109, 5-[2-(1-Hydroxycyclopentyl)ethyl]-3-(3-pyrrolidinyl)-1H-indole]	6.12	8.5	
CNS(=O)(=O)Cc1ccc2[nH]cc(CCN(C)C)c2c1 [Sumatriptan, sumatriptan]			contraction of the isolated dog saphenous vein strip ([4]; P.P.A. Humphrey et al., Brit. J. Pharmacol., 1988, 94, 1123): contracting the isolated dog saphenous vein strip; carotid arterial blood flow [5]: decrease in carotid arterial blood flow; carotid vascular resistance [5]: selective increase in carotid vascular resistance
CSc1ccc2c(c1)C(N1CCN(C)CC1)Cc1ccccc1S2 (centres unmarked) [methiothepin]			blockade of the contraction effect ([4]; isolated dog saphenous vein strip, known 5-HT antagonist): blocked
